These results are taken from BindingDB's records for doi:10.1002/cbic.200390029 (University of Queensland Brisbane, 2003).

Each structure is given as a SMILES string.

As a reminder, the IC50 is the midpoint of a concentration-inhibition curve.

In the assay the target is T1, Phospholipase A2, membrane associated (Homo sapiens, UniProt P14555).
T1 sequence (P14555 whole entry): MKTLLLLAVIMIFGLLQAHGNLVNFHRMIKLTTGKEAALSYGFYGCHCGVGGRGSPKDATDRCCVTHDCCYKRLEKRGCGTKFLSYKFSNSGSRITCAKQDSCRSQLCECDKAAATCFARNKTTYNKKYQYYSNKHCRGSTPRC
Put plainly: In Vitro Colorimetric Enzyme Assay.
On to `O=C(O)CC[C@@H](Cc1ccc(OCc2ccccc2)cc1)NC(=O)CCCCCc1ccccc1` [hnpsPLA2-IIa Inhibitor, 2a], for which inhibition was half-maximal at 0.662 µM (IC50).
The molecule `O=C(O)CC[C@@H](Cc1ccc(OCc2ccccc2)cc1)NC(=O)CCCCCCCc1ccccc1` [hnpsPLA2-IIa Inhibitor, 2c] showed an IC50 of 2.48 µM.
With `COc1ccccc1CCCCCCC(=O)N[C@@H](CCC(=O)O)Cc1ccc(OCc2ccccc2)cc1` [hnpsPLA2-IIa Inhibitor, 2d], the IC50 came out at 1.82 µM.
In the case of `CC(=O)Nc1ccccc1CCCCCCC(=O)N[C@@H](CCC(=O)O)Cc1ccc(OCc2ccccc2)cc1` [hnpsPLA2-IIa Inhibitor, 2e], the IC50 was 4.05 µM.
The figure for `O=C(O)CC[C@@H](Cc1ccc(OCc2ccccc2)cc1)NC(=O)CCCCCCc1cccnc1` [hnpsPLA2-IIa Inhibitor, 2f] is 0.761 µM; for `O=C(O)CC[C@@H](Cc1ccc(OCc2ccccc2)cc1)NC(=O)CCCCCCc1cccc([N+](=O)[O-])c1` [hnpsPLA2-IIa Inhibitor, 2g] it is 0.536 µM; for `O=C(O)CC[C@@H](Cc1ccc(Oc2ccccn2)cc1)NC(=O)CCCCCCc1ccccc1` [hnpsPLA2-IIa Inhibitor, 2h] it is 0.214 µM.
The molecule `O=C(O)CC[C@@H](Cc1ccc(Oc2cccnc2)cc1)NC(=O)CCCCCCc1ccccc1` [hnpsPLA2-IIa Inhibitor, 2i] gave an IC50 of 0.247 µM.
`O=C(O)CC[C@@H](Cc1ccc(OCC2CCCCC2)cc1)NC(=O)CCCCCCc1ccccc1` [hnpsPLA2-IIa Inhibitor, 2j]: the IC50 was 0.067 µM.
The figure for `O=C(O)CC[C@@H](Cc1ccc(OCC2CCCC2)cc1)NC(=O)CCCCCCc1ccccc1` [hnpsPLA2-IIa Inhibitor, 2k] is 0.057 µM; for `O=C(O)CC[C@@H](Cc1ccc(OCc2cccc3ccccc23)cc1)NC(=O)CCCCCCc1ccccc1` [hnpsPLA2-IIa Inhibitor, 2l] it is 0.019 µM; for `O=C(O)CC[C@@H](Cc1ccc(OCc2ccc3ccccc3c2)cc1)NC(=O)CCCCCCc1ccccc1` [hnpsPLA2-IIa Inhibitor, 2m] it is 0.039 µM.
Regarding `O=C(O)CC[C@@H](Cc1ccc(OC/C=C/c2ccccc2)cc1)NC(=O)CCCCCCc1ccccc1` [hnpsPLA2-IIa Inhibitor, 2n], it took 0.116 µM to reach half-maximal inhibition (IC50).
Consider `CC(C)COc1ccc(C[C@H](CCC(=O)O)NC(=O)CCCCCCc2ccccc2)cc1` [hnpsPLA2-IIa Inhibitor, 2o], for which the IC50 turned out to be 0.17 µM.
Regarding `CCCCCCCOc1ccc(C[C@H](CCC(=O)O)NC(=O)CCCCCCc2ccccc2)cc1` [hnpsPLA2-IIa Inhibitor, 2p], half-maximal inhibition (IC50) required 0.086 µM.
To `O=C(O)CC[C@@H](Cc1ccc(O)cc1)NC(=O)CCCCCCc1ccccc1` [hnpsPLA2-IIa Inhibitor, 2q] belongs 2.57 µM.
